ChEMBL document CHEMBL1201862, “PubChem BioAssay data set” (2004)
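Grown in 96-well plates, cells were treated for 48 hours with each compound at five concentrations. Insufficient inhibition: endpoint recorded as highest concentration tested. Here, GI50 denotes the concentration required for 50% inhibition of growth.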 The source made the active and inactive calls. Cut-off read from the data, not from the text of the source: active = GI50 up to about 1.1 µM and inactive = higher.

How the values were obtained:
Assay in all cases: NCI-60 cell line screen, 48 h
[1] = test system: MDA-MB-435
[2] = test system: Hs-578T
[3] = test system: HCT-15
[4] = test system: HCT-116
[5] = test system: OVCAR-8
[6] = test system: TK-10
[7] = test system: T47D
[8] = test system: SK-MEL-5
[9] = test system: A549
[10] = test system: HOP-92
[11] = test system: K562
[12] = test system: IGROV-1
[13] = test system: RXF 393
[14] = test system: HT-29
[15] = test system: SK-MEL-28
[16] = test system: DU-145
[17] = test system: MDA-MB-231
[18] = test system: ACHN
[19] = test system: CAKI-1
[20] = test system: UACC-62
[21] = test system: KM12
[22] = test system: SF-295
[23] = test system: OVCAR-5
[24] = test system: CCRF-CEM
[25] = test system: SNB-19
[26] = test system: NCI/ADR-RES
[27] = test system: A498
[28] = test system: BT-549
[29] = test system: COLO 205
[30] = test system: OVCAR-3
[31] = test system: 786-0
[32] = test system: EKVX
[33] = test system: SK-MEL-2
[34] = test system: SW-620
[35] = test system: M14
[36] = test system: SF-268
[37] = test system: OVCAR-4
[38] = test system: Malme-3M
[39] = test system: RPMI-8226
[40] = test system: SR
[41] = test system: SK-OV-3
[42] = test system: NCI-H522
[43] = test system: MOLT-4
[44] = test system: SF-539
[45] = test system: NCI-H226
[46] = test system: MCF7
[47] = test system: UACC-257
[48] = test system: NCI-H460
[49] = test system: MDA-N
[50] = test system: U-251
[51] = test system: HCC 2998
[52] = test system: SN12C
[53] = test system: LOX IMVI
[54] = test system: SNB-75
[55] = test system: HOP-62
[56] = test system: UO-31
[57] = test system: NCI-H23
[58] = test system: PC-3
[59] = test system: HL-60

CCOC(=O)c1cn2c(n1)sc1cc(Cl)cc(Cl)c12
GI50 [1]: > 100 µM (inactive) | GI50 [2]: > 100 µM (inactive) | GI50 [3]: > 100 µM | GI50 [4]: > 100 µM (inactive) | GI50 [5]: > 100 µM (inactive) | GI50 [6]: > 100 µM (inactive) | GI50 [7]: > 100 µM (inactive) | GI50 [8]: > 100 µM (inactive) | GI50 [9]: > 100 µM (inactive) | GI50 [10]: > 100 µM (inactive) | GI50 [11]: > 100 µM (inactive) | GI50 [12]: > 100 µM (inactive) | GI50 [13]: > 100 µM (inactive) | GI50 [14]: > 100 µM (inactive) | GI50 [15]: > 100 µM (inactive) | GI50 [16]: > 100 µM (inactive) | GI50 [17]: > 100 µM (inactive) | GI50 [18]: > 100 µM (inactive) | GI50 [19]: > 100 µM (inactive) | GI50 [20]: > 100 µM (inactive) | GI50 [21]: > 100 µM (inactive) | GI50 [22]: > 100 µM (inactive) | GI50 [23]: > 100 µM (inactive) | GI50 [24]: > 100 µM (inactive) | GI50 [25]: > 100 µM (inactive) | GI50 [26]: > 100 µM (inactive) | GI50 [27]: > 100 µM (inactive) | GI50 [28]: > 100 µM (inactive) | GI50 [29]: > 100 µM (inactive) | GI50 [30]: > 100 µM (inactive) | GI50 [31]: > 100 µM (inactive) | GI50 [32]: > 100 µM (inactive) | GI50 [33]: > 100 µM (inactive) | GI50 [34]: > 100 µM (inactive) | GI50 [35]: > 100 µM (inactive) | GI50 [36]: > 100 µM (inactive) | GI50 [37]: > 100 µM (inactive) | GI50 [38]: > 100 µM (inactive) | GI50 [39]: > 100 µM (inactive) | GI50 [40]: > 100 µM (inactive) | GI50 [41]: > 100 µM (inactive) | GI50 [42]: > 100 µM (inactive) | GI50 [43]: > 100 µM (inactive) | GI50 [44]: > 100 µM (inactive) | GI50 [45]: > 100 µM (inactive) | GI50 [46]: > 100 µM (inactive) | GI50 [47]: > 100 µM (inactive) | GI50 [48]: > 100 µM (inactive) | GI50 [49]: > 100 µM (inactive) | GI50 [50]: > 100 µM (inactive) | GI50 [51]: > 100 µM (inactive) | GI50 [52]: > 100 µM (inactive) | GI50 [53]: > 100 µM (inactive) | GI50 [54]: > 100 µM (inactive) | GI50 [55]: > 100 µM (inactive) | GI50 [56]: > 100 µM (inactive) | GI50 [57]: > 100 µM (inactive) | GI50 [58]: > 100 µM (inactive)

COc1ccc(/C=C/C(=O)c2cc(CN(C)C)c(O)c(CN(C)C)c2)cc1
GI50 [1]: 44 µM (inactive) | GI50 [2]: 43.6 µM (inactive) | GI50 [3]: 40 µM | GI50 [4]: 24.2 µM (inactive) | GI50 [5]: 29.8 µM (inactive) | GI50 [6]: 40.6 µM (inactive) | GI50 [7]: 19.6 µM (inactive) | GI50 [8]: 16.2 µM (inactive) | GI50 [9]: 27.6 µM (inactive) | GI50 [11]: 26.7 µM (inactive) | GI50 [12]: 37 µM (inactive) | GI50 [13]: 31.7 µM (inactive) | GI50 [14]: 27.7 µM (inactive) | GI50 [15]: 54.2 µM (inactive) | GI50 [16]: 34.2 µM (inactive) | GI50 [17]: 23.2 µM (inactive) | GI50 [18]: 27.9 µM (inactive) | GI50 [19]: 47.5 µM (inactive) | GI50 [21]: 17.7 µM (inactive) | GI50 [22]: 26.8 µM (inactive) | GI50 [23]: > 100 µM (inactive) | GI50 [24]: 35.2 µM (inactive) | GI50 [25]: 29.9 µM (inactive) | GI50 [26]: 33.1 µM (inactive) | GI50 [59]: 22.9 µM (inactive) | GI50 [27]: 19.7 µM (inactive) | GI50 [28]: 27.9 µM (inactive) | GI50 [29]: 18.4 µM (inactive) | GI50 [30]: 18 µM (inactive) | GI50 [31]: 74 µM (inactive) | GI50 [32]: 49.8 µM (inactive) | GI50 [34]: 36.9 µM (inactive) | GI50 [36]: 75.9 µM (inactive) | GI50 [38]: 25.2 µM (inactive) | GI50 [39]: 21.8 µM (inactive) | GI50 [40]: 31.9 µM (inactive) | GI50 [42]: 20.5 µM (inactive) | GI50 [43]: 28.2 µM (inactive) | GI50 [44]: 45.3 µM (inactive) | GI50 [45]: 40.1 µM (inactive) | GI50 [46]: 36.6 µM (inactive) | GI50 [47]: 16.5 µM (inactive) | GI50 [48]: 18.7 µM (inactive) | GI50 [49]: 21.2 µM (inactive) | GI50 [50]: 48.1 µM (inactive) | GI50 [51]: > 10 µM (inactive) | GI50 [52]: 21.9 µM (inactive) | GI50 [53]: 14.2 µM (inactive) | GI50 [54]: 19 µM (inactive) | GI50 [55]: 21.8 µM (inactive) | GI50 [56]: 25.2 µM (inactive) | GI50 [57]: 46.9 µM (inactive) | GI50 [58]: 23.9 µM (inactive)
